Measured values: patent US12458643B2, “Antidepressant/anxiolytic drug in which PAC1 receptor antagonist is used” (KAGOSHIMA UNIVERSITY, priority 2020, dated 2025)

Experiments:
[1] = disclosed in Patent Literature 2 (WO 2019/065794); cited from earlier work
PAC1 receptor = target: T1, PAC1 receptor (Homo sapiens, UniProt P41586); details: disclosed in Patent Literature 2 (WO 2019/065794); cited from earlier work
T1 sequence (P41586 21-468): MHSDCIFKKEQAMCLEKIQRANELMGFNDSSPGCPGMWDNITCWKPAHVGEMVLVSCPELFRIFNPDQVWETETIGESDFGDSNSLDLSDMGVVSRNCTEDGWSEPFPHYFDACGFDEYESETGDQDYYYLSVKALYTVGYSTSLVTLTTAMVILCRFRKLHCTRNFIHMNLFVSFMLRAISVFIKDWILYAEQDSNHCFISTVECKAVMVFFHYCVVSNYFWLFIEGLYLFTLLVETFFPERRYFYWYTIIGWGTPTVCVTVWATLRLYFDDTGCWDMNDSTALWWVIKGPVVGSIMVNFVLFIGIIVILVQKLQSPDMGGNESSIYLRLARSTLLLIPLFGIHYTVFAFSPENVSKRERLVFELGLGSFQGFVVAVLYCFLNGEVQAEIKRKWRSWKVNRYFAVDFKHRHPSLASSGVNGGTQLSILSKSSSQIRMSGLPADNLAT

[2] = tested on: single-restraint stress mice; assay: Single-restraint stress-induced anxiety-like behavior, open field test; format: in vivo, mouse; details: 30 mg/kg i.p. 30 min before 30 min restraint; 10 min test
Protocol: Male C57BL/6J mice (8 to 12 weeks old) were acclimatized to a laboratory (illuminance: 40 lx) for 60 minutes. Then, a vehicle (10% DMSO solution; dissolved in saline; n=11), PA-8 (30 mg/kg; n=11) or PA-81004 (30 mg/kg; n=8) was intraperitoneally administered thereto (0.1 mL/10 g). After a lapse of 30 minutes after administration, restraint stress (stress caused by holding the mice in tubes of 2.8 cm in diameter with a hole for breathing) was applied thereto for 30 minutes. The mice were allowed to freely explore an open field cage for 10 minutes from immediately after the completion of restraint. Mice that freely behaved in a home cage for 30 minutes without being held and without accessing water and food were used as a control (n=10). The results are shown in FIG. 9 (A: total distance traveled, B: the number of center zone entries, C: time spent in the center zone). The data was indicated by mean±standard error. **P<0.01, *P<0.05 (One-way ANOVA followed by Tukey-Kramer test). […] Male C57BL/6J mice (8 to 12 weeks old) were acclimatized to a laboratory (illuminance: 40 lx) for 60 minutes. Then, a vehicle (10% DMSO solution; dissolved in saline; n=10), PA-9 (30 mg/kg; n=13) or PA-915 (30 mg/kg; n=12) was intraperitoneally administered thereto (0.1 mL/10 g). After a lapse of 30 minutes after administration, restraint stress (stress caused by holding the mice in tubes of 2.8 cm in diameter with a hole for breathing) was applied thereto for 30 minutes. The mice were allowed to freely explore an open field cage for 10 minutes from immediately after the completion of restraint. Mice that freely behaved in a home cage for 30 minutes without being held and without accessing water and food were used as a control (n=10). The results are shown in FIG. 11 (A: total distance traveled, B: the number of center zone entries, C: time spent in the center zone). The data was indicated by mean±standard error. **P<0.01, *P<0.05 (One-way ANOVA followed by Tukey-Kramer test).

[3] = tested on: chronically corticosterone-administered model mice; assay: Repeated corticosterone administration, forced swim test; format: in vivo, mouse; details: male mice, corticosterone 20 mg/kg s.c. 21 days; single i.p. PA-915 30 mg/kg, ketamine 20 mg/kg, fluoxetine 20 mg/kg; 24 hours later
Protocol: Chronically corticosterone-administered model mice are model mice that mimic high plasma corticosterone levels associated with the hyperactivation of the hypothalamic-pituitary-adrenal system under pathological stress, and are generally used as depression model mice.
A vehicle (0.5% carboxymethylcellulose solution) or corticosterone (20 mg/kg) was subcutaneously administered (0.1 mL/10 g) to male C57BL/6J mice (6 weeks old) for 21 days. A vehicle (10% DMSO solution; dissolved in saline; n=11), PA-915 (30 mg/kg; n=13), ketamine (20 mg/kg; n=13) or fluoxetine (20 mg/kg; n=15) was intraperitoneally administered thereto (0.1 mL/10 g) 3 hours after administration on the 21st day. The mice were forced to swim for 6 minutes 24 hours later, and an immobility time was measured. Mice given the vehicle by repeated administration without repeated corticosterone administration were used as a control (n=11). The data was indicated by mean±standard error. **P<0.01 (One-way ANOVA followed by Tukey-Kramer test).
A vehicle (0.5% carboxymethylcellulose solution) or corticosterone (20 mg/kg) was subcutaneously administered (0.1 mL/10 g) to female C57BL/6J mice (9 weeks old) for 21 days. […] The mice were forced to swim for 6 minutes 24 hours later, and an immobility time was measured. […]

normal mice = assay: Radial maze test in normal mice; format: in vivo, mouse; details: i.p. PA-915 30 mg/kg, ketamine 20 mg/kg, 30 minutes later, Day 10
Protocol: (3) The effects of PA-915 and ketamine on normal mice were evaluated by a radial maze test (test to evaluate spatial working memory by exploiting the foraging behavior of mice, and using an apparatus having 40 cm long, 10 cm wide and 12 cm high arms radially arranged in 8 directions).
On Day 0, male C57BL/6J mice (8 weeks old) were acclimatized to the apparatus by free exploration for 10 minutes in the apparatus in a laboratory (illuminance: 200 lx). On Days 1 and 2, the mice were allowed to explore only correct arms baited with a reward (food pellets, 5 mg) for 10 minutes. On Days 3 to 9, the mice were allowed to explore all the arms for 5 minutes at maximum until the mice finished the reward while the ends of the correct arms were baited with the reward. On Day 10, a vehicle (V: 10% DMSO solution; dissolved in saline; n=10), PA-915 (PA: 30 mg/kg; n=10) or ketamine (K: 20 mg/kg; n=10) was intraperitoneally administered thereto (0.1 mL/10 g). The mice were allowed to freely explore the maze from 30 minutes later, and the number of entries to the arms without the reward (the number of errors) was measured. During the test period, the absence of marked change in the body weights of the mice by dietary restriction was confirmed. The data was indicated by mean±standard error. **P<0.01 (One-way ANOVA followed by Tukey-Kramer test).

| Compound | analgesic action [1] | PAC1 receptor antagonistic action (PAC1 receptor) | effect on single-restraint stress-induced anxiety-like behavior (open field test) [2] | effect on depressive-like behavior (forced swim test, immobility time) [3] | influence on spatial working memory (number of errors, radial maze) (normal mice) |
| --- | --- | --- | --- | --- | --- |
| C=CCOc1ccc(C2CC(=O)Nc3nc(N)[nH]c(=O)c32)cc1OC (stereo not shown) [PA-8] | analgesic action | PAC1 receptor antagonistic action | improving effects | – | – |
| O=C(NCCc1c[nH]cn1)C1CC(=O)N(c2n[nH]c3ccccc23)C1 (stereo not shown) [PA-9] | analgesic action | PAC1 receptor antagonistic action | improving effects | – | – |
| Nc1nc2c(c(=O)[nH]1)C(c1cccc(OC(F)(F)F)c1)CC(=O)N2 (stereo not shown) [PA-81004, 2-Amino-5-(3-trifluoromethoxyphenyl)-5,8-dihydro-3H,6H-pyrido[2,3-d]pyrimidine-4,7-dione] | – | – | improving effects | – | – |
| CNC1(c2ccccc2Cl)CCCCC1=O (stereo not shown) [ketamine] | – | – | – | improved depressive-like behavior | decreased spatial cognitive function |
| CNCCC(Oc1ccc(C(F)(F)F)cc1)c1ccccc1 (stereo not shown) [fluoxetine] | – | – | – | exhibited no improving effect | – |
